Reference: patent US10016356B2, “Sebum secretion inhibitory agent” (BASF Beauty Care Solutions France S.A.S., priority 2008, dated 2018)

Assays:
[1] = test system: squalene synthesis on explants of normal human skin; test: Biosynthesis of squalene from 4-14C mevalonate on explants of normal human skin (in vitro); format: cell-based; settings: percentage relative to untreated negative control; extracts of culture media; 24 h; n=3 biopsies; extract at 2%, zinc gluconate at 1%
Procedure: The principle of this evaluation is based on the measurement of the biosynthesis of squalene, a specific tracer of the production of human sebum by the sebocytes, from radiolabelled mevalonic acid.
1) Freshly taken biopsies of human skin (n=3) are incubated in 5 ml of culture medium in the presence or absence of the test products for 24 h.
2) An amount of radioactive products of 2 μCi of mevalonate 4-^14C is then added to the biopsies and the whole is incubated again for 24 h.
3) Extraction of the culture media and of the surface of the skin is carried out with isopropyl ether, then the skin samples are dried and weighed as dry weight.
4) The extraction products are analysed by thin-layer chromatography and the quantity of metabolites of ^14C-mevalonate (squalene) is evaluated.
The squalene on the surface of the skin in culture is extracted, then deposited on HPTLC (high-performance thin layer chromatography) plates and migrated after addition of 10 μg of a squalene standard by deposition in the presence of heptane as migration solvent. The radioactivity of the squalene is visualized in a conventional manner. Each radioactive spot corresponding to squalene is scraped onto the HPTLC plates and the radioactivity is measured using a scintillation counter. Each count was expressed in grams of dry tissue. […]

[2] = test system: Caucasian and Asian volunteers; test: Determination of squalene in Sebutape patches (HPTLC, densitometry); format: in vivo, human; settings: after 28 days of treatment; zinc gluconate 1%
Procedure: (§1) The principle of this evaluation is based on the clinical and instrumental analysis of samples of secretions of sebum using Sebutape™ patches according to the conventional method.
(§2) Caucasian and Asian volunteers applied a test product once a day, in blind conditions. Clinical and instrumental assessments, by application of Sebutape™ patches, were carried out on D0, D14 and D28 and the contents of these samples of Sebutape™ patches were analysed quantitatively by image analyser (polarimetric imaging). Determination of the squalene taken in the Sebutape™ patches was carried out as follows:
The Sebutape™ patches were treated by extraction with 10 ml of ether. The lipid residues were deposited on an HPTLC silica gel nanoplate on an aluminium support, one lane of which was reserved for receiving a deposit of 10 μg of squalene standard.
The contents of the plates were subjected to migration in heptane.
The squalene spots were then quantified by densitometry using an instrument of the ChromatoScan CS-93 (Shimadzu) type. Reading was based on absorption at 450 nm and the area of the peaks was expressed in arbitrary units in the table of results given below.

[3] = test system: Asian volunteers; test: Self-evaluation of skin texture (refinement of skin grain); format: in vivo, human; settings: 2 days after stopping the 28-day treatment, extract at 2%, zinc gluconate positive control
Procedure: (§3) The experiment was conducted on Caucasian and Asian volunteers according to the conditions described in Example 3 for 28 days of treatment (last application on D27 in the evening). Assessments carried out on D30 allowed the persistence of the effect of an extract according to the invention on the production of sebum to be evaluated, two days after stopping the treatment.
Moreover, 2 days after stopping the treatment, 71% of the Asian volunteers who had applied the extract according to Example 1a) at 2% declared that there was refinement of their skin grain (p<0.05). In comparison, only 52% of the volunteers in the group of volunteers who had applied the positive control (zinc gluconate) noticed an improvement in this parameter.

[4] = test system: Caucasian and Asian volunteers; test: Number of active sebaceous glands (number of spots on Sebutape patches, image analysis); format: in vivo, human; settings: extract at 2%, zinc gluconate 1%
Procedure: as §1, §2
At 28 days of treatment, the number of active sebaceous glands had decreased by 7.4% in the subjects who had applied the extract according to Example 1a) at 2% (measurement of the number of spots present on the patches compared against D0).
as §3

[5] = test system: Caucasian and Asian volunteers; test: Clinical assessment of pore size and shiny appearance in volunteers applying the product once a day; format: in vivo, human; settings: after 28 days of treatment, extract at 2%, zinc gluconate 1%
Procedure: as §2, §3

**Q.** For zinc gluconate, which “Measurement of squalene synthesis, Mean value” [1] is on record?
**A.** 76.6%

**Q.** What about the “change of content of squalene in the sebum (signed)” value [2] of the same substance?
**A.** −14%

**Q.** And the “volunteers declaring refinement of their skin grain (self-evaluation)” value [3]?
**A.** 52%

**Q.** And the “Active sebaceous glands, % Dn/D 0” value ([4]; 2 days after D 28 (after stopping the treatment))?
**A.** −3.8%

**Q.** And the “Active sebaceous glands, % Dn/D 0” value ([4]; D 28)?
**A.** +8.5%

**Q.** And the “pore size reduced by (clinical assessment)” value [5]?
**A.** 17.5%
